Measured values: US11311542B2, “Inhibitors of cyclin dependent kinase 7 (CDK7)” (Syros Pharmaceuticals, Inc., priority 2018, dated 2022)
Like-named read-outs stand apart in the source and are kept apart here.

What was measured:
HCC70 cells = assay: Inhibition of cell proliferation (CyQUANT Direct), HCC70; type: cell-based, human; details: HCC70, 72-hour
Protocol: (§1) HCC70 and MB453 cells are cell lines derived from human triple negative breast cancer COV318 and COV504 cells are cell lines derived from human ovarian cancer. Representative compounds of the invention were tested at different concentrations (from 4 μM to 126.4 pM; 0.5 log serial dilutions) for their ability to inhibit the proliferation of each of these cell lines. Known CDK inhibitors dinaciclib or N-((1S,3R)-3-((5-chloro-4-(1H-indol-3-yl) pyrimidin-2-yl)amino)cyclohexyl)-5-((E)-4-(dimethylamino)but-2-enamido)picolinamide and triptolide were used as positive controls. Cells were seeded at approximately 2,000 cells/well and grown in ATCC-formulated RPMI-1640 Medium (ATCC 30-2001)+10% FBS. The cells were cultured at 37° C. in a humidified chamber in the presence of 5% CO2. Proliferation assays were conducted over a 72-hour time period. CyQUANT® Direct Cell Proliferation Assay (Life Technologies, Chicago, Ill. USA) was used to assess the anti-proliferative effects of the compounds following manufacturer's directions and utilizing the reagents supplied with the CyQUANT® Direct Cell kit.

COV318 cells = assay: Inhibition of cell proliferation (CyQUANT Direct), COV318; type: cell-based, human; details: COV318, 72-hour
Protocol: as §1

COV504 cells = assay: Inhibition of cell proliferation (CyQUANT Direct), COV504; type: cell-based, human; details: COV504, 72-hour
Protocol: as §1

MB453 cells = assay: Inhibition of cell proliferation (CyQUANT Direct), MB453; type: cell-based, human; details: MB453, 72-hour
Protocol: as §1

CDK2/Cyclin E1 complex = CDK2/Cyclin E1 complex (Homo sapiens, UniProt P24941); assay: CDK2 kinase inhibition assay (Caliper/LabChip EZ Reader)
[1] = target: CDK7/Cyclin H/MAT1 complex (Homo sapiens, UniProt P50613); assay: CDK7 kinase inhibition assay (Caliper/LabChip EZ Reader)
Sequence of CDK7/Cyclin H/MAT1 complex (P50613 whole entry): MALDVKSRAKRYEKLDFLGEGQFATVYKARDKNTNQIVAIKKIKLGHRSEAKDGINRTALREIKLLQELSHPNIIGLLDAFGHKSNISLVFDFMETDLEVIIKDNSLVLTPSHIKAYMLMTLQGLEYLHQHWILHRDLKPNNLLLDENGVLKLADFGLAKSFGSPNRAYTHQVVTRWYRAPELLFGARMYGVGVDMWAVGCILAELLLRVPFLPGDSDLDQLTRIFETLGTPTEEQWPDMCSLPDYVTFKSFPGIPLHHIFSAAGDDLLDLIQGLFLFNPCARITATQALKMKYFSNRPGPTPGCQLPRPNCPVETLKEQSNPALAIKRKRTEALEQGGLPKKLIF
Sequence of CDK7/Cyclin H/MAT1 complex (P51946 whole entry partner): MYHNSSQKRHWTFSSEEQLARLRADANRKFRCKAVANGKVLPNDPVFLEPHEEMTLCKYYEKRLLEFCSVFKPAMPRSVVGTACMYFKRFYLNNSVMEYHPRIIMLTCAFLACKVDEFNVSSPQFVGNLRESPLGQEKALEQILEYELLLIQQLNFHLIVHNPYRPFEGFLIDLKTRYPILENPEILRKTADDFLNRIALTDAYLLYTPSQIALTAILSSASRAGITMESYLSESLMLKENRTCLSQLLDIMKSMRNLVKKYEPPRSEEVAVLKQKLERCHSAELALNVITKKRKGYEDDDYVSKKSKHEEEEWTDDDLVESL
Sequence of CDK7/Cyclin H/MAT1 complex (P51948 whole entry partner): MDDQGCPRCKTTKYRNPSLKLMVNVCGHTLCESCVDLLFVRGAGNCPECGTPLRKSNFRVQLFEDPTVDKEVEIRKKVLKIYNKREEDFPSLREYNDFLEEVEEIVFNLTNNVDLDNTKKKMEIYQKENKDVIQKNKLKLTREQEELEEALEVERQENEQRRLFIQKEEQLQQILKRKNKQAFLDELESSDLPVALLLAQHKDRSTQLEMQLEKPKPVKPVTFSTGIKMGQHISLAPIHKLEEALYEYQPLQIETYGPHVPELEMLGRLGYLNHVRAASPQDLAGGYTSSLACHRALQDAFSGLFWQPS

CDK9/Cyclin T1 complex = CDK9/Cyclin T1 complex (Homo sapiens, UniProt P50750); assay: CDK9 kinase inhibition assay (Caliper/LabChip EZ Reader)
Sequence of CDK9/Cyclin T1 complex (P50750 whole entry, the tested form may be a part): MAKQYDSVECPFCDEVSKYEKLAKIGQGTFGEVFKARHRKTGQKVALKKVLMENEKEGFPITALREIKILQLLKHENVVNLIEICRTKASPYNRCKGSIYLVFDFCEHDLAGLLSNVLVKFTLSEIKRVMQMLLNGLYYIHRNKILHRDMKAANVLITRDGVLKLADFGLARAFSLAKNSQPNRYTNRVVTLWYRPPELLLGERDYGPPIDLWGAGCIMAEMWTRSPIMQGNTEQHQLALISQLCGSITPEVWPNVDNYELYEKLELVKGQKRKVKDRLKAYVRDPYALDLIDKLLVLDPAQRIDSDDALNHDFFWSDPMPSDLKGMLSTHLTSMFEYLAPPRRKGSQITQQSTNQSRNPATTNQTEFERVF
Sequence of CDK9/Cyclin T1 complex (O60563 whole entry partner, the tested form may be a part): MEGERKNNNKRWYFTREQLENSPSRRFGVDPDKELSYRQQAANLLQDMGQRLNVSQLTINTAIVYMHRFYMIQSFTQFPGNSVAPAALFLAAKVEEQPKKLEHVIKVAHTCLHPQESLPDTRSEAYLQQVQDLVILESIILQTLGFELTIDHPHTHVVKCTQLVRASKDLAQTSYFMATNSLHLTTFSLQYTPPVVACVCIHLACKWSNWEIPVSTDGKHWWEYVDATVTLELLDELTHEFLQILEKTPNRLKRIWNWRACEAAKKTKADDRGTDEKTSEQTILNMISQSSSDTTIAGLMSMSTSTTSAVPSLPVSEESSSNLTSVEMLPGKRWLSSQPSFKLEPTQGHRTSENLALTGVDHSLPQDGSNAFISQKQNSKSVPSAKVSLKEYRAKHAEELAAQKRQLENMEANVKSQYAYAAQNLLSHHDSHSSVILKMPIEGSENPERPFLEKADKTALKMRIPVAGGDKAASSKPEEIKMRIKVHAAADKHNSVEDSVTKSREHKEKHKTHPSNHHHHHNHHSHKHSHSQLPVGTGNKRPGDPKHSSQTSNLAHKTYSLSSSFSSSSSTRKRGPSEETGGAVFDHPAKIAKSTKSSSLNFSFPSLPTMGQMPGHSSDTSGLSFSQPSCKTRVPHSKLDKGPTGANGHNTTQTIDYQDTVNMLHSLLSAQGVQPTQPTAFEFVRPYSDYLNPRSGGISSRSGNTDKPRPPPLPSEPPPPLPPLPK

[2] = target: CDK12 (aa686-1082)/Cyclin K complex (Homo sapiens, UniProt Q9NYV4); assay: CDK12 kinase inhibition assay (Caliper/LabChip EZ Reader)
Sequence of CDK12 (aa686-1082)/Cyclin K complex (Q9NYV4 686-1082): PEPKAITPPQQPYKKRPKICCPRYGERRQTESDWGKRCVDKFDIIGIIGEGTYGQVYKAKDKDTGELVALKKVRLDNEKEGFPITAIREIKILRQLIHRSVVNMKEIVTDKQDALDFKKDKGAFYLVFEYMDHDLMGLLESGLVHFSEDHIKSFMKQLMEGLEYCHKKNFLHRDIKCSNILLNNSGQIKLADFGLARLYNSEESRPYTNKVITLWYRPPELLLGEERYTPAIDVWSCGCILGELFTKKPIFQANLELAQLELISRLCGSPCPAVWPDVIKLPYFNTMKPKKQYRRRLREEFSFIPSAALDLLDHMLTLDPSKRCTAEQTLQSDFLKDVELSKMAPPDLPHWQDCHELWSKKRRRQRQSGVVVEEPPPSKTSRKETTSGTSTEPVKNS
Sequence of CDK12 (aa686-1082)/Cyclin K complex (O75909 whole entry partner, the tested form may be a part): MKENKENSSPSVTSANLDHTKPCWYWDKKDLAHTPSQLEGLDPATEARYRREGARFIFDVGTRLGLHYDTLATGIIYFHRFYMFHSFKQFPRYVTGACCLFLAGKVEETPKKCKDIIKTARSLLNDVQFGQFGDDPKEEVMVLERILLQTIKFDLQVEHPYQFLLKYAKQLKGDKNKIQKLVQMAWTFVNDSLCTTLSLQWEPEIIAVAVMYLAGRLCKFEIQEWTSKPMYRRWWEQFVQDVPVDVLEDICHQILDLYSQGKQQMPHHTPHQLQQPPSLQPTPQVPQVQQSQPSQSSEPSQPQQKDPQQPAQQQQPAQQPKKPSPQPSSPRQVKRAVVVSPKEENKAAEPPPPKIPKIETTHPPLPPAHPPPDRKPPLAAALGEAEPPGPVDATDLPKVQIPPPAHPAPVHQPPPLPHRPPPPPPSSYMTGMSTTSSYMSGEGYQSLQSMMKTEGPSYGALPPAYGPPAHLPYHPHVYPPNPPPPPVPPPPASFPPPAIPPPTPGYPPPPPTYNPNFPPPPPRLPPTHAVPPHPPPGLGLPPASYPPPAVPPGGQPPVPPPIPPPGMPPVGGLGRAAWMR
Protocol: Compounds described herein were assayed for inhibition of CDK7, CDK9, CDK12, and CDK2 activity at Biortus Biosciences (Jiangyin, Jiangsu Province, P.R. of China) using kinase assays for each CDK developed with a Caliper/LabChip EZ Reader (Perkin Elmer, Waltham, Mass.).
Furthermore, the CDK9 inhibition assay used CDK9/Cyclin T1 complex (8 nM) and “5-FAM-CDK9tide” peptide substrate (2 μM, synthesized fluorophore-labeled peptide with the following sequence: 5-FAM-GSRTPMY-NH2 (SEQ ID NO:2) where 5-FAM is defined above and NH2 signifies a C-terminal amide) with 10 mM MgCl2 in the buffer composition listed above. The CDK12 inhibition assay used CDK12 (aa686-1082)/Cyclin K complex (50 nM) and “5-FAM-CDK9tide” (2 μM) as defined above, with 2 mM MgCl2 in the buffer composition above. Additionally, the CDK2 inhibition assay used CDK2/Cyclin E1 complex (0.5 nM) and “5-FAM-CDK7tide” (2 μM; defined above) with 2 mM MgCl2 in the buffer composition above.
The incubation period at 27° C. for each CDK inhibition assay was chosen such that the fraction of phosphorylated peptide product produced in each assay, relative to the total peptide concentration, was approximately 20% (±5%) for the uninhibited kinase (35 min. for CDK7, 35 min. for CDK2, 3 hr. for CDK12, 15 min. for CDK9).

[3] = read-out: CDK2 IC50, CDK2/Cyclin E1 0.5 nM, ATP 2 mM, 35 min at 27° C.
[4] = read-out: CDK7 IC50, CDK7/Cyclin H/MAT1 6 nM, ATP 2 mM, 35 min at 27° C.
[5] = read-out: CDK9 IC50, CDK9/Cyclin T1 8 nM, ATP 2 mM, 15 min at 27° C.
[6] = read-out: CDK12 IC50, CDK12 (aa686-1082)/Cyclin K 50 nM, ATP 2 mM, 3 hr at 27° C.

Row | Compound | IC50 (HCC70 cells; Homo sapiens) [µM] | IC50 (COV318 cells; Homo sapiens) [µM] | IC50 (COV504 cells; Homo sapiens) [µM] | IC50 (MB453 cells; Homo sapiens) [µM] | IC50 (CDK2/Cyclin E1 complex) [µM] | IC50 [1] [µM] | IC50 (CDK9/Cyclin T1 complex) [µM] | IC50 [2] [µM] | IC50 (CDK2/Cyclin E1 complex; [3]) [µM] | IC50 [1, 4] [µM] | IC50 (CDK9/Cyclin T1 complex; [5]) [µM] | IC50 [2, 6] [µM] | IC50 (HCC70 cells) [µM] | IC50 (COV318 cells) [µM] | IC50 (COV504 cells) [µM] | IC50 (MB453 cells) [µM]
1 | Cc1noc(C)c1-c1ccc2c(-c3nc(N[C@@H]4CNCC(C)(C)C4)ncc3C(F)(F)F)c[nH]c2n1 [Compound 115] | < 0.1 | < 0.1 | < 0.1 | < 0.1 | 0.1 to 0.5 | < 0.03 | > 0.5 | 0.1 to 0.5 |  |  |  |  |  |  |  | 
2 | Cc1noc(C)c1-c1ccc2c(-c3nc(N[C@@H]4CN(C(=O)OC(C)(C)C)CC[C@@H]4C)ncc3C(F)(F)F)cn(S(=O)(=O)c3ccccc3)c2n1 (single isomer, unassigned) [Compound 143] | < 0.1 | > 1 | < 0.1 | < 0.1 |  |  |  |  | > 0.5 | < 0.03 | > 0.5 | > 0.5 |  |  |  | 
3 | Cc1noc(C)c1-c1ccc2c(-c3nc(N[C@@H]4CC[C@@H](C)NC4)ncc3C(F)(F)F)n[nH]c2n1 [Compound 153, 4-[6-(3,5-dimethylisoxazol-4-yl)-1H-pyrazolo[3,4-b]pyridin-3-yl]-N-[(3R,6R)-6-methyl-3-piperidyl]-5-(trifluoromethyl)pyrimidin-2-amine] | < 0.1 | < 0.1 | < 0.1 | < 0.1 | > 0.5 | < 0.03 | > 0.5 | > 0.5 |  |  |  |  |  |  |  | 
4 | Cc1nnnn1-c1ccc2c(-c3nc(N[C@H]4CCCNC4)ncc3C(F)(F)F)c[nH]c2n1 [Compound 141, 4-[6-(5-methyltetrazol-1-yl)-1H-pyrrolo[2,3-b]pyridin-3-yl]-N-[(3S)-3-piperidyl]-5-(trifluoromethyl)pyrimidin-2-amine] | 0.1 to 0.5 | 0.1 to 0.5 | < 0.1 | 0.1 to 0.5 | > 0.5 | < 0.03 | > 0.5 | > 0.5 |  |  |  |  |  |  |  | 
5 | Cc1noc(C)c1-c1cc2[nH]cc(-c3nc(N[C@H]4CCCNC4)ncc3C(F)(F)F)c2cc1F [Compound 134, 4-(6-(3,5-dimethylisoxazol-4-yl)-5-fluoro-1H-indol-3-yl)-N—((S)-piperidin-3-yl)-5-(trifluoromethyl)pyrimidin-2-amine] | < 0.1 | < 0.1 | < 0.1 | < 0.1 | > 0.5 | < 0.03 | > 0.5 | > 0.5 |  |  |  |  |  |  |  | 
6 | 3-methyl-4-(3-(2-(methylthio)-5-(trifluoromethyl)pyrimidin-4-yl)-1-(phenylsulfonyl)-1H-pyrrolo[2,3-b]pyridin-6-yl)isoxazole [Compound 147] |  |  |  |  |  |  |  |  | > 0.5 | < 0.03 | > 0.5 | > 0.5 | < 0.1 | > 1 | < 0.1 | < 0.1
7 | C[C@H]1CC[C@H](Nc2ncc(C(F)(F)F)c(-c3c[nH]c4nc(-c5cnnn5C)ccc34)n2)CN1 [Compound 150, N-[(3S,6S)-6-methyl-3-piperidyl]-4-[6-(3-methyltriazol-4-yl)-1H-pyrrolo[2,3-b]pyridin-3-yl]-5-(trifluoromethyl)pyrimidin-2-amine] | 0.1 to 0.5 | 0.1 to 0.5 | < 0.1 | < 0.1 | > 0.5 | < 0.03 | > 0.5 | > 0.5 |  |  |  |  |  |  |  | 
8 | Cc1nocc1-c1ccc2c(-c3nc(N[C@H]4CCCNC4)ncc3C(F)(F)F)c[nH]c2n1 [Compound 132] | < 0.1 | < 0.1 | < 0.1 | < 0.1 | > 0.5 | < 0.03 | > 0.5 | > 0.5 |  |  |  |  |  |  |  | 
9 | Cc1nocc1-c1ccc2c(-c3nc(N[C@H]4CCCNC4)ncc3C(F)(F)F)c[nH]c2c1 [Compound 114, (S)-4-(6-(3-methylisoxazol-4-yl)-1H-indol-3-yl)-N-(piperidin-3-yl)-5-(trifluoromethyl)pyrimidin-2-amine] | < 0.1 | < 0.1 | < 0.1 | < 0.1 | > 0.5 | < 0.03 | > 0.5 | > 0.5 |  |  |  |  |  |  |  | 
